SMILES strings stand for the structures. Structures can show the parent of a compound that is named as a salt.

Drawing on US8268827B2, “Pyridazinone derivatives as PARP inhibitors” (Istituto di Ricerche di Biologia Molecolare P. Angeletti …, priority 2007, dated 2012), this text covers CC50 for 29 molecules.

The test deals with BRCA-1 silenced HeLa cells (HeLa shBRCA1-GFP). In words: Proliferation assay in BRCA-1 silenced HeLa cells. The test is classed as cell-based. The conditions noted are these: Homo sapiens; BRCA1 silenced HeLa cells, 168 hours; read-out: CC50 in the BRCA1 silenced HeLa cells. The method in brief: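 Antiproliferative effect was read by Celltiter Blue fluorescence after 168 h of compound treatment at 37° C., 5% CO2. Cells were matched HeLa pairs, BRCA1-shRNA (>80% silenced, GFP) versus non-shRNA vector control, in DMEM with 10% FCS.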
The term CC50 denotes the concentration at which the toxic effect on the cells reaches its halfway point. As for `Cc1c(Cc2ccc(F)c(C(=O)N3CC(=O)N(C4CCCOC4)C(C)C3)c2)n[nH]c(=O)c1C` (centres unmarked) [Example 129, 6-(4-Fluoro-3-{[3-methyl-5-oxo-4-(tetrahydro-2h-pyran-3-yl)piperazin-1-yl]carbonyl}benzyl)-4,5-dimethylpyridazin-3(2H)-one trifluoroacetate], the cytotoxic concentration (CC50) is 50 to 500 nM.

Consider `Cc1c(Cc2ccc(F)c(C(=O)N3CC(=O)N(C4CCOC4)C(C)C3)c2)n[nH]c(=O)c1C` (centres unmarked) [Example 130, 6-(4-Fluoro-3-{[3-methyl-5-oxo-4-(tetrahydrofuran-3-yl)piperazin-1-yl]carbonyl}benzyl)-4,5-dimethylpyridazin-3(2H)-one trifluoroacetate], for which the cytotoxic concentration (CC50) fell in the range of 50 to 500 nM.

Regarding `Cc1c(Cc2ccc(F)c(C(=O)N3CC(=O)N(C(c4ccccc4)C(F)F)C(C)C3)c2)n[nH]c(=O)c1C` (centres unmarked) [Example 131, 6-(3-{[4-(2,2-Difluoro-1-phenylethyl)-3-methyl-5-oxopiperazin-1-yl]carbonyl}-4-fluorobenzyl)-4,5-dimethylpyridazin-3(2H)-one trifluoroacetate], the CC50 is less than 50 nM.

As for `Cc1c(Cc2ccc(F)c(C(=O)N3CC(=O)N(C4COc5ccccc5C4)C(C)C3)c2)n[nH]c(=O)c1C` (centres unmarked) [Example 132, 6-(3-{[4-(3,4-Dihydro-2H-chromen-3-yl)-3-methyl-5-oxopiperazin-1-yl]carbonyl}-4-fluorobenzyl)-4,5-dimethylpyridazin-3(2H)-one trifluoroacetate], the CC50 was less than 50 nM.

In the case of `O=C(c1cc(Cc2cc(C(F)(F)F)c(=O)[nH]n2)ccc1F)N1CCN([C@H]2CCCOC2)C(=O)C1` [Example 153, 6-[4-fluoro-3-({3-oxo-4-[(3S)-tetrahydro-2H-pyran-3-yl]piperazin-1-yl}carbonyl)benzyl]-4-(trifluoromethyl)pyridazin-3(2H)-one], the cytotoxic concentration (CC50) was in the range of 50 to 500 nM.

On to `O=C(c1cc(Cc2cc(C(F)(F)F)c(=O)[nH]n2)ccc1F)N1CCN([C@@H]2CCCOC2)C(=O)C1` [Example 154, 6-[4-fluoro-3-({3-oxo-4-[(3R)-tetrahydro-2H-pyran-3-yl]piperazin-1-yl}carbonyl)benzyl]-4-(trifluoromethyl)pyridazin-3(2H)-one], for which the CC50 is less than 5000 nM.

In the case of `CCN1C(=O)CN(C(=O)c2cc(Cc3n[nH]c(=O)c(C(F)(F)F)c3C)ccc2F)C[C@@H]1C` [Example 155, 6-(3-{[(3S)-4-ethyl-3-methyl-5-oxopiperazin-1-yl]carbonyl}-4-fluorobenzyl)-5-methyl-4-(trifluoromethyl)pyridazin-3(2H)-one], the CC50 is less than 50 nM.

`CCN1C(=O)CN(C(=O)c2cc(Cc3n[nH]c(=O)c(C(F)(F)F)c3C)ccc2F)C[C@H]1C` [Example 156, 6-(3-{[(3R)-4-ethyl-3-methyl-5-oxopiperazin-1-yl]carbonyl}-4-fluorobenzyl)-5-methyl-4-(trifluoromethyl)pyridazin-3(2H)-one]: the CC50 is less than 50 nM.

As to `Cc1c(Cc2ccc(F)c(C(=O)N3CC(=O)N([C@@H]4CCOC4)[C@@H](C)C3)c2)n[nH]c(=O)c1C` [Example 157, 6-[4-fluoro-3-({(3S)-3-methyl-5-oxo-4-[(3R)-tetrahydrofuran-3-yl]piperazin-1-yl}carbonyl)benzyl]-4,5-dimethylpyridazin-3(2H)-one], the CC50 was 50 to 500 nM.

For `Cc1c(Cc2ccc(F)c(C(=O)N3CC(=O)N([C@@H]4CCOC4)[C@H](C)C3)c2)n[nH]c(=O)c1C` [Example 158, 6-[4-fluoro-3-({(3R)-3-methyl-5-oxo-4-[(3R)-tetrahydrofuran-3-yl]piperazin-1-yl}carbonyl)benzyl]-4,5-dimethylpyridazin-3(2H)-one], the CC50 was 50 to 500 nM.

Take `CCc1cc(Cc2ccc(F)c(C(=O)N3CCN([C@H]4CCc5ccccc5C4)C(=O)C3)c2)n[nH]c1=O` [Example 159, 4-ethyl-6-[4-fluoro-3-({3-oxo-4-[(2S)-1,2,3,4-tetrahydronaphthalen-2-yl]piperazin-1-yl}carbonyl)benzyl]pyridazin-3(2H)-one]: the CC50 was less than 50 nM.

Regarding `CCc1cc(Cc2ccc(F)c(C(=O)N3CCN([C@@H]4CCc5ccccc5C4)C(=O)C3)c2)n[nH]c1=O` [Example 160, 4-ethyl-6-[4-fluoro-3-({3-oxo-4-[(2R)-1,2,3,4-tetrahydronaphthalen-2-yl]piperazin-1-yl}carbonyl)benzyl]pyridazin-3(2H)-one], the CC50 fell in the range of 50 to 500 nM.

As for `CC[C@H](C)N1CCN(C(=O)c2cc(Cc3n[nH]c(=O)c(C)c3C)ccc2F)CC1=O` [Example 161, 6-[4-Fluoro-3-({4-[(1S)-1-methylpropyl]-3-oxopiperazin-1-yl}carbonyl)benzyl]-4,5-dimethylpyridazin-3(2H)-one], the CC50 is less than 50 nM.

In the case of `COCC(C)N1CCN(C(=O)c2cc(Cc3n[nH]c(=O)c(C)c3C)ccc2F)CC1=O` (centres unmarked) [Example 162, 6-(4-Fluoro-3-{[4-(2-methoxy-1-methylethyl)-3-oxopiperazin-1-yl]carbonyl}benzyl)-4,5-dimethylpyridazin-3(2H)-one], the CC50 was less than 50 nM.

For `Cc1c(Cc2ccc(F)c(C(=O)N3CC(=O)N(C4CCC4)C(C)C3)c2)n[nH]c(=O)c1C` (centres unmarked) [Example 163, 6-{3-[(4-Cyclobutyl-3-methyl-5-oxopiperazin-1-yl)carbonyl]-4-fluorobenzyl}-4,5-dimethylpyridazin-3(2H)-one], the CC50 was less than 50 nM.

Take `CCC1CN(C(=O)c2cc(Cc3n[nH]c(=O)c(C)c3C)ccc2F)CC(=O)N1C1CCC1` (centres unmarked) [Example 164, 6-{3-[(4-Cyclobutyl-3-ethyl-5-oxopiperazin-1-yl)carbonyl]-4-fluorobenzyl}-4,5-dimethylpyridazin-3(2H)-one]: the CC50 lay within 50 to 500 nM.

As for `Cc1c(Cc2ccc(F)c(C(=O)N3CC(=O)N(c4cccc(Cl)c4)C(C)C3)c2)n[nH]c(=O)c1C` (centres unmarked) [Example 165, 6-(3-{[4-(3-Chlorophenyl)-3-methyl-5-oxopiperazin-1-yl]carbonyl}-4-fluorobenzyl)-4,5-dimethylpyridazin-3(2H)-one], the CC50 was less than 50 nM.

In the case of `Cc1c(Cc2ccc(F)c(C(=O)N3CC(=O)N(c4ccc(C#N)cc4)[C@@H](C)C3)c2)n[nH]c(=O)c1C` [Example 166, 4-((2S)-4-{5-[(4,5-Dimethyl-6-oxo-1,6-dihydropyridazin-3-yl)methyl]-2-fluorobenzoyl}-2-methyl-6-oxopiperazin-1-yl)benzonitrile], the CC50 is less than 50 nM.

Regarding `CCC(CC)N1CCN(C(=O)c2cc(Cc3n[nH]c(=O)c(C)c3C)ccc2F)CC1=O` [Example 167, 6-(3-{[4-(1-Ethylpropyl)-3-oxopiperazin-1-yl]carbonyl}-4-fluorobenzyl)-4,5-dimethylpyridazin-3(2H)-one], the CC50 is less than 50 nM.

In the case of `CC[C@@H](C)N1CCN(C(=O)c2cc(Cc3n[nH]c(=O)c(C)c3C)ccc2F)CC1=O` [Example 168, 6-[4-Fluoro-3-({4-[(1R)-1-methylpropyl]-3-oxopiperazin-1-yl}carbonyl)benzyl]-4,5-dimethylpyridazin-3(2H)-one], the CC50 is less than 50 nM.

`COC[C@H](C)N1CCN(C(=O)c2cc(Cc3n[nH]c(=O)c(C)c3C)ccc2F)CC1=O` [Example 169, 6-[4-Fluoro-3-({4-[(1S)-2-methoxy-1-methylethyl]-3-oxopiperazin-1-yl}carbonyl)benzyl]-4,5-dimethylpyridazin-3(2H)-one]: the 50% cytotoxic concentration (CC50) is less than 5000 nM.

As for `Cc1c(Cc2ccc(F)c(C(=O)N3CCN(CC(C)(C)O)C(=O)C3)c2)n[nH]c(=O)c1C` [Example 173, 6-(4-Fluoro-3-{[4-(2-hydroxy-2-methylpropyl)-3-oxopiperazin-1-yl]carbonyl}benzyl)-4,5-dimethylpyridazin-3(2H)-one], the CC50 is less than 5000 nM.

Regarding `Cc1c(Cc2ccc(F)c(C(=O)N3CC(=O)N(c4ccc(C#N)c(F)c4)[C@@H](C)C3)c2)n[nH]c(=O)c1C` [Example 174, 4-((2S)-4-{5-[(4,5-Dimethyl-6-oxo-1,6-dihydropyridazin-3-yl)methyl]-2-fluorobenzoyl}-2-methyl-6-oxopiperazin-1-yl)-2-fluorobenzonitrile], the CC50 is less than 50 nM.

As to `Cc1c(Cc2ccc(F)c(C(=O)N3CC(=O)N(C4CCC4)[C@H](C)C3)c2)n[nH]c(=O)c1C` [Example 175, 6-(3-{[(3R)-4-Cyclobutyl-3-methyl-5-oxopiperazin-1-yl]carbonyl}-4-fluorobenzyl)-4,5-dimethylpyridazin-3(2H)-one], the CC50 was less than 50 nM.

Consider `Cc1c(Cc2ccc(F)c(C(=O)N3CC(=O)N(c4cccc(Cl)c4)[C@@H](C)C3)c2)n[nH]c(=O)c1C` [Example 177, 6-(3-{[(3S)-4-(3-Chlorophenyl)-3-methyl-5-oxopiperazin-1-yl]carbonyl}-4-fluorobenzyl)-4,5-dimethylpyridazin-3(2H)-one], for which the CC50 was less than 50 nM.

For the molecule `Cc1c(Cc2ccc(F)c(C(=O)N3CC(=O)N(c4cccc(Cl)c4)[C@H](C)C3)c2)n[nH]c(=O)c1C` [Example 178, 6-(3-{[(3R)-4-(3-Chlorophenyl)-3-methyl-5-oxopiperazin-1-yl]carbonyl}-4-fluorobenzyl)-4,5-dimethylpyridazin-3(2H)-one], the CC50 is less than 50 nM.

With `COC[C@@H](C)N1CCN(C(=O)c2cc(Cc3n[nH]c(=O)c(C)c3C)ccc2F)CC1=O` [Example 179, 6-[4-Fluoro-3-({4-[(1R)-2-methoxy-1-methylethyl]-3-oxopiperazin-1-yl}carbonyl)benzyl]-4,5-dimethylpyridazin-3(2H)-one], the CC50 was less than 5000 nM.

With `CC[C@@H]1CN(C(=O)c2cc(Cc3n[nH]c(=O)c(C)c3C)ccc2F)CC(=O)N1C1CCC1` [Example 180, 6-(3-{[(3R)-4-Cyclobutyl-3-ethyl-5-oxopiperazin-1-yl]carbonyl}-4-fluorobenzyl)-4,5-dimethylpyridazin-3(2H)-one], the half-maximal cytotoxic concentration (CC50) is less than 5000 nM.

In the case of `CCC1CN(C(=O)c2cc(Cc3n[nH]c(=O)c(C)c3C)ccc2F)CC(=O)N1C1CCCCC1` (centres unmarked) [Example 184, 6-{3-[(4-Cyclohexyl-3-ethyl-5-oxopiperazin-1-yl)carbonyl]-4-fluorobenzyl}-4,5-dimethylpyridazin-3(2H)-one], the CC50 lay in the range of 50 to 500 nM.
